Data on 7 compounds can be found in article PMC8706783 (Pharmaceutics, 2021).

By fraction remaining is commonly meant the share of the starting amount still present when the sample was taken.

Each structure is given as a SMILES string.

The target of one data set is T1, UGT2B7 (Homo sapiens, UniProt P16662).
T1 sequence (P16662 24-529): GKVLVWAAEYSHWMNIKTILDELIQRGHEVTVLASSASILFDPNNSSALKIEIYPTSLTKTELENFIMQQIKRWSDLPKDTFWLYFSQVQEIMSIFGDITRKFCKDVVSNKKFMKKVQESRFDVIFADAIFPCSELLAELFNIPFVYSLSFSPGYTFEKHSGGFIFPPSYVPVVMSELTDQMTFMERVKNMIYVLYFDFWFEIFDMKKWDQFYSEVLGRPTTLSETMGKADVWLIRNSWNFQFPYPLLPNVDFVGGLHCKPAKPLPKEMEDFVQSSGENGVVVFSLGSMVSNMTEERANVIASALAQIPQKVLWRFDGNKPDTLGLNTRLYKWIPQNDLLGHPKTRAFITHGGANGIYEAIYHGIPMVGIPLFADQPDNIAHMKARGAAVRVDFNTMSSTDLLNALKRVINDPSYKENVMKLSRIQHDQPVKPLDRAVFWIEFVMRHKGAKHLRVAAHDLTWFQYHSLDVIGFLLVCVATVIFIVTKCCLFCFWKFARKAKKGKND
The data set can be described thus: Reaction phenotyping, rUGT2B7. The note with it: recombinant UGT2B7, pH 7.4.

In another data set the target is T2, UGT1A4 (Homo sapiens, UniProt P22310).
T2 sequence (P22310 29-534): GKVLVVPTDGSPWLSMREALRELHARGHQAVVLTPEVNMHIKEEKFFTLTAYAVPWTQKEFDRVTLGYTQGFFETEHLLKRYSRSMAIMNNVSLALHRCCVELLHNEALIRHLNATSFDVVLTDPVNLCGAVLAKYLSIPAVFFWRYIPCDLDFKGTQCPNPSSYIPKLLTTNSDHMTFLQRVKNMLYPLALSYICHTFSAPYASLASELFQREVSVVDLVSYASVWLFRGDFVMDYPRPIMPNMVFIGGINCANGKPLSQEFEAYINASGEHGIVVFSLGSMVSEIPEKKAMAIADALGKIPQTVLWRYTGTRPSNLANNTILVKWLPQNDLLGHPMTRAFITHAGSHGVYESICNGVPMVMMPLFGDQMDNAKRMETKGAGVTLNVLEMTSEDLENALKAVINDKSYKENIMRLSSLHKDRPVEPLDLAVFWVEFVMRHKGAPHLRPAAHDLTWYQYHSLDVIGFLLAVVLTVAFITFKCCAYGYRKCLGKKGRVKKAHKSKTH
Nature of the data set: Reaction phenotyping, rUGT1A4. The note with it: recombinant UGT1A4, pH 7.4.

In the next data set the target is rCYP1B1 (Homo sapiens, UniProt Q16678). The note with it: recombinant enzyme, 1 h.
Chain of rCYP1B1 (Q16678 whole entry): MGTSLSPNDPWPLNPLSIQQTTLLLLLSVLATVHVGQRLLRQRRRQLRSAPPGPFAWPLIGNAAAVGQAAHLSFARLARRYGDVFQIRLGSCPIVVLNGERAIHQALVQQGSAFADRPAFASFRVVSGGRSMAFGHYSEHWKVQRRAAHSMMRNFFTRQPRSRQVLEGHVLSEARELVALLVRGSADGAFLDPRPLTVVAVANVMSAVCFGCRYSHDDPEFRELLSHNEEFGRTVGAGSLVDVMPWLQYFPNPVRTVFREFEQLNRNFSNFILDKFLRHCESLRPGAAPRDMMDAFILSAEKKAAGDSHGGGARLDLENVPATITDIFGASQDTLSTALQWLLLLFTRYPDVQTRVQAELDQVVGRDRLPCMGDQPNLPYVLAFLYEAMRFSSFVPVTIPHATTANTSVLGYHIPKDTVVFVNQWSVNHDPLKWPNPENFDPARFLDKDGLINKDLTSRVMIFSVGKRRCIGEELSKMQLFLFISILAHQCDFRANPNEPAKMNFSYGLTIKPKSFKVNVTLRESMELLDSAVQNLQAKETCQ
A short description of data set [1]: Reaction phenotyping, HLM with UDPGA. The note with it: human, human liver microsomes, pH 7.4.
The next data set addresses T3, UGT1A8 (Homo sapiens, UniProt Q9HAW9).
T3 sequence (Q9HAW9 26-530): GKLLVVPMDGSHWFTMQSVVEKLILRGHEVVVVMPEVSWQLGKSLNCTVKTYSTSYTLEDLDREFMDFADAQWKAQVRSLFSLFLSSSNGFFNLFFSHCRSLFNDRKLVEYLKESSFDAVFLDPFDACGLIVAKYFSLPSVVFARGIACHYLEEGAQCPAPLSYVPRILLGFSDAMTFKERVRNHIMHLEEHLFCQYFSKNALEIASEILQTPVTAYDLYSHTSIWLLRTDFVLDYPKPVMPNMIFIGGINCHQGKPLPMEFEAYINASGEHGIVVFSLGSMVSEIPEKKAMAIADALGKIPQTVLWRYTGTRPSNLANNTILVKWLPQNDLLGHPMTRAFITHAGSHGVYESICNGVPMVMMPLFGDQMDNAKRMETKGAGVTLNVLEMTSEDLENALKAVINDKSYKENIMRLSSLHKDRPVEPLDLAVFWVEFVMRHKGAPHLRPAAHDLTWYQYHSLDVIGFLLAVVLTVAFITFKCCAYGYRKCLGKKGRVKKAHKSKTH
The data set can be described thus: Reaction phenotyping, rUGT1A8. Particulars: recombinant UGT1A8, pH 7.4.

The target in a further data set is T4, UGT1A6 (Homo sapiens, UniProt P19224).
T4 sequence (P19224 27-532): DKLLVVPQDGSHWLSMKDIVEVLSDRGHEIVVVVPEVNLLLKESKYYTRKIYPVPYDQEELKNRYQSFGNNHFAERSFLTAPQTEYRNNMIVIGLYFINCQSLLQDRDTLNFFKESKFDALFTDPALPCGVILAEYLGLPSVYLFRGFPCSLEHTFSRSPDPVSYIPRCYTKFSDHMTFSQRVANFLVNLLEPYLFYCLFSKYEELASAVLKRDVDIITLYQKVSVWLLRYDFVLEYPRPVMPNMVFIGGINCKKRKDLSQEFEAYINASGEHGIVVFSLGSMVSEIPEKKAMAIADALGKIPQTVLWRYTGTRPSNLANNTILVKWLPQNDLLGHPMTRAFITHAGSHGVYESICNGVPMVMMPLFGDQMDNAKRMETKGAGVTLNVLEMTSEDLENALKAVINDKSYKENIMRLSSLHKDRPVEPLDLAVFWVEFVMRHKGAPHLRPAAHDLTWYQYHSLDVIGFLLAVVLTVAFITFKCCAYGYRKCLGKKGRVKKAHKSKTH
Nature of the data set: Reaction phenotyping, rUGT1A6. Particulars: recombinant UGT1A6, pH 7.4.

A further data set concerns the target T5, UGT1A7 (Homo sapiens, UniProt Q9HAW7).
T5 sequence (Q9HAW7 26-530): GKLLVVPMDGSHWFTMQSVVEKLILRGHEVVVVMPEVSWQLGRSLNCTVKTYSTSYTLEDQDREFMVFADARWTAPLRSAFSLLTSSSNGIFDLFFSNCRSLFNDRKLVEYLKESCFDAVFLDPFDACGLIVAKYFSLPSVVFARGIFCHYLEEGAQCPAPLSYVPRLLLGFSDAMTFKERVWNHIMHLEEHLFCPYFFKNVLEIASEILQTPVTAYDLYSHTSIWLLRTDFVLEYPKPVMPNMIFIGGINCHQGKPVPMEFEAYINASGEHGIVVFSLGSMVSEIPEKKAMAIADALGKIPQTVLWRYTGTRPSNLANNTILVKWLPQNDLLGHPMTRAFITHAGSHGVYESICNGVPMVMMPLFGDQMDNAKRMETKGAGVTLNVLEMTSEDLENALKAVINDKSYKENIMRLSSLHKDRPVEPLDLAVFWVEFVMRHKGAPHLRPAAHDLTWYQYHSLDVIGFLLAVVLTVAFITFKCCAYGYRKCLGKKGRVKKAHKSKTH
Nature of the data set: Reaction phenotyping, rUGT1A7. The note with it: recombinant UGT1A7, pH 7.4.

A further data set concerns the target T6, UGT1A9 (Homo sapiens, UniProt O60656).
T6 sequence (O60656 26-530): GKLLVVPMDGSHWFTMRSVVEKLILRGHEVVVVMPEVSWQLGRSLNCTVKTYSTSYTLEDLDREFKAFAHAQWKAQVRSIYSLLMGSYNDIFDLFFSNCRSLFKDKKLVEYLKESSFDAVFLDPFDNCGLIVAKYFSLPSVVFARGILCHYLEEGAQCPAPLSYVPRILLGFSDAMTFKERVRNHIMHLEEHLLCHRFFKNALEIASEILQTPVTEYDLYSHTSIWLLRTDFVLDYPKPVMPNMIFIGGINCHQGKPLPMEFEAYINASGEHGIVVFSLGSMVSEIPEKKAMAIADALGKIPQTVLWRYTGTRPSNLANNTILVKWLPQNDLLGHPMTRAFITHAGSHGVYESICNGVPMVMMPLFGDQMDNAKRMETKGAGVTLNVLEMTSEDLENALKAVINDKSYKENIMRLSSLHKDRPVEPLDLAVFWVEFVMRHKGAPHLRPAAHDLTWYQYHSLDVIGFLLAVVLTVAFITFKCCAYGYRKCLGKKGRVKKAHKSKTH
Nature of the data set: Reaction phenotyping, rUGT1A9. The note with it: recombinant UGT1A9, pH 7.4.

In another data set the target is T7, CYP1A2 (Homo sapiens, UniProt P05177).
T7 sequence (P05177 1-516): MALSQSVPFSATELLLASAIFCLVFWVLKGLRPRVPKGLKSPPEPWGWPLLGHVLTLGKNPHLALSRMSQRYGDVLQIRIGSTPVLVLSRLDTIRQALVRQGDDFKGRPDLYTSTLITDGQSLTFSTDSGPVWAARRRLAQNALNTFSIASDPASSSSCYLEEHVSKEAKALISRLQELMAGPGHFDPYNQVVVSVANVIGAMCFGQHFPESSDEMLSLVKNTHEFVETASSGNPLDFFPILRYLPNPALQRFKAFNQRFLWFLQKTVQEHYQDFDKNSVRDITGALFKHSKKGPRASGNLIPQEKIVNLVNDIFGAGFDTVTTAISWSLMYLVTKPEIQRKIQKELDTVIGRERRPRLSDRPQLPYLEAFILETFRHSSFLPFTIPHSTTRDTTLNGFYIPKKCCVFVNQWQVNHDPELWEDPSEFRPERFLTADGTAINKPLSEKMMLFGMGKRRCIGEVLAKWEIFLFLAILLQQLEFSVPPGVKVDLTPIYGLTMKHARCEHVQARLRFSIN
The data set can be described thus: Reaction phenotyping, rCYP1A2. Particulars: recombinant CYP1A2, pH 7.4.

The target in the next data set is T8, CYP1A1 (Homo sapiens, UniProt P04798).
T8 sequence (P04798 1-512): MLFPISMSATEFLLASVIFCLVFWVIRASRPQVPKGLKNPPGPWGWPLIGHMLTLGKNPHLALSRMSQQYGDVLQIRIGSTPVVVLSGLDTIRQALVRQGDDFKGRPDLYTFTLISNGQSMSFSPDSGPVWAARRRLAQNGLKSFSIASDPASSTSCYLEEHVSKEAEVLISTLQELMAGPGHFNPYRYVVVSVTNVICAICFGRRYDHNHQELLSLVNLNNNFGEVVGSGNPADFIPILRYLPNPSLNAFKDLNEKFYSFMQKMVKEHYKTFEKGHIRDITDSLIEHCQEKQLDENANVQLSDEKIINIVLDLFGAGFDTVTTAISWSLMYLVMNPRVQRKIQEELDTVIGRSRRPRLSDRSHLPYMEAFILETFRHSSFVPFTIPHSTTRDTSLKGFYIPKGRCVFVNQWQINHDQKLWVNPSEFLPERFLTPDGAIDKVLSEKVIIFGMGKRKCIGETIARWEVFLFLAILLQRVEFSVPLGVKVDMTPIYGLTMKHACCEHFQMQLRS
The data set can be described thus: Reaction phenotyping, rCYP1A1. Particulars: recombinant CYP1A1, pH 7.4.

The target in another data set is T9, UGT1A3 (Homo sapiens, UniProt P35503).
T9 sequence (P35503 29-534): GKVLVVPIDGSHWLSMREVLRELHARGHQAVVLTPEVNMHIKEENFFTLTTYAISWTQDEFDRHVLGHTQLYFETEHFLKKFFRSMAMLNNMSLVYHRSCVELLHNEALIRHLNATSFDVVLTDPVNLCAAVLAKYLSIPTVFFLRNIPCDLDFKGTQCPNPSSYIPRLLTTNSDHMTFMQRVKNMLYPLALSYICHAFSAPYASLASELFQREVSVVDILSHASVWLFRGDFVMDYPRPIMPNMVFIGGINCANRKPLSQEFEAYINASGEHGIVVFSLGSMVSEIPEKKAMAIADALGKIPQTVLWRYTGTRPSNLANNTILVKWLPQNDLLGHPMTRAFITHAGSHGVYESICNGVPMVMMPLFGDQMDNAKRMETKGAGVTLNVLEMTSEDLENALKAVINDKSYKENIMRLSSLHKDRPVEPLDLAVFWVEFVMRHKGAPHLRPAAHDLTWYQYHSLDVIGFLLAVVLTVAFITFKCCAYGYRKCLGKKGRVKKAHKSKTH
Nature of the data set: Reaction phenotyping, rUGT1A3. Particulars: recombinant UGT1A3, pH 7.4.

Consider `Cc1cn([C@H]2C[C@H](N=[N+]=[N-])[C@@H](CO)O2)c(=O)[nH]c1=O` [Zidovudine], for which the share remaining at 1 h, 10 µM at UGT2B7 came out at 74.4%. For `CN1CCN(CCCN2c3ccccc3Sc3ccc(C(F)(F)F)cc32)CC1` [Trifluoperazine], the fraction remaining at 1 h, 0.5 µM at UGT1A4 turned out to be 73.1%.

Turning to `CCOc1ccc2nc3ccc(=O)cc-3oc2c1` [7-ethoxyresorufin], the “Known Substrate (% Remaining at 60 min)” value on rCYP1B1 is 7-ethoxyresorufin (35.11) %.

Regarding `Cc1cc(=O)oc2cc(O)ccc12` [4-methylumbelliferone], the share remaining at 1 h, 2 µM was 0.82% in [1], 49.9% at UGT1A8 and 5.26% at UGT1A6. The share remaining at 1 h, 10 µM at UGT1A7 was 70.9%. Regarding `COc1c(C)c2c(c(O)c1C/C=C(\C)CCC(=O)O)C(=O)OC2` [Mycophenolic acid], on UGT1A9, the share remaining at 1 h, 0.2 µM was 0%. `CCOc1ccc(NC(C)=O)cc1` [Phenacetin]: the share remaining at 1 h, 10 µM was found to be 65.8% at CYP1A2 and 41% on CYP1A1. In the case of `C[C@H](CCC(=O)O)[C@H]1CC[C@H]2[C@@H]3[C@H](O)C[C@@H]4C[C@H](O)CC[C@]4(C)[C@H]3CC[C@]12C` [Chenodeoxycholic acid], the amount remaining at 1 h, 2 µM on UGT1A3 was determined as 59.4%.
